Results on eleven compounds are retold here after US11319289B2, “5-hydroxy pyridine-based compound for use as P2X1 and P2X3 receptor antagonist and pharmaceutical composition comprising same” (GWANGJU INSTITUTE OF SCIENCE AND TECHNOLOGY, priority 2017, dated 2022).

Test [1] relates to CIPN rats (mechanical allodynia). Description: Antiallodynic effect (von Frey) in chemotherapy-induced peripheral neuropathy (CIPN) rats. In kind it is in vivo. The settings on record: Rattus norvegicus, intravenous administration. As for the experimental part: (§1) 3-1. Evaluation of In Vivo Efficacy
(§2) The antiallodynic effects (mechanical allodynia) were evaluated using rats according to a previously reported protocol. In order to evaluate the withdrawal threshold, rats (naive, SNL and CIPN) were placed on a plastic mesh floor of individual plastic cages. The rats were allowed to acclimate to the environment for 30 minutes and examined after intrathecal or intravenous administration to the caudal vein. The control group received the same volume of vehicle (intrathecal administration of saline or DMSO, intravenous administration of DMSO:PEG:PBS=1:6:3 v/v %) as the experimental groups. Evaluation of the mechanical withdrawal threshold was measured in responses to the application of calibrated von Frey filaments (Stoelting, Wood Dale, Ill., USA) to the hind paw of the rats through the holes on the mesh floor underneath the cage using the ‘up and down method’. A series of eight von Frey filaments (0.4, 0.7, 1.2, 2.0, 3.6, 5.5, 8.5, and 15 g) was applied perpendicular to the sole of the hind paw for 5 seconds while the head was bent. Active withdrawal or flinching of the paw was considered as a positive reaction. The absence of response in the rats, when a pressure was applied to 15 g von Frey filament, was used as a cut-off value. Only rats with definite allodynia (i.e., mechanical withdrawal threshold: less than 4 g after SNL or less than 5 g after CIPN) were tested. The rats after termination of the experiments were euthanized through an overdose of sevoflurane. The withdrawal threshold data for the von Frey filament test was calculated as % MPE (maximum possible effect) based on the following Calculation Equation: % MPE=[(Post-drug threshold−Post-injured baseline threshold)/(Cutoff threshold−post-injured baseline threshold)×100]. Dose-response data were analyzed using Scheffe's post hoc test and one-way analysis of variance (ANOVA).

The subject of test [2] is SNL rats (mechanical allodynia). Description: Antiallodynic effect (von Frey) in spinal nerve ligation (SNL) rats. The format is in vivo, rat. The settings on record: Rattus norvegicus, antiallodynic effect, intravenous administration. As for the experimental part: as §1, §2
Test [3] concerns the target T1, mouse P2X1 receptor (mP2X1) (Mus musculus, UniProt P51576).
T1 construct: expressed in transfected cells; host or cells: Xenopus oocytes (cRNA microinjection)
T1 sequence (P51576 1-399): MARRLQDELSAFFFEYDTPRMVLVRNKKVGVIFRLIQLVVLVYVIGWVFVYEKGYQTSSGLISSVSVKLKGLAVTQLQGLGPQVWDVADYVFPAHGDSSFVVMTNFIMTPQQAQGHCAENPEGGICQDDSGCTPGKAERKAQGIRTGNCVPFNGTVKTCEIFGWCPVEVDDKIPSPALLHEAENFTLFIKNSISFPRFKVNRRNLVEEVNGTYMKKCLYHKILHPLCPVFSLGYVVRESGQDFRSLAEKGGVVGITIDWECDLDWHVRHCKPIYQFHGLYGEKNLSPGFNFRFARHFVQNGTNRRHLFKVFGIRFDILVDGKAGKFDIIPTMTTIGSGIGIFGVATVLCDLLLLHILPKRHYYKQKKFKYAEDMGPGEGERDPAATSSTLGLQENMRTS
As to the kind of experiment: Two-electrode voltage clamp assay, recombinant mP2X1 receptor in Xenopus oocytes. The format is cell-based. As for the experimental part:
(§3) 1-1. Two-Electrode Voltage Clamp Assay for Recombinant mP2X1 and hP2X3 Receptors
(§4) Xenopus oocytes were isolated and incubated with 270 U/mg of collagenase at 23 to 24° C. for 1.5 hours. Defolliculated oocytes were kept in Barth's solution at 18° C. After 1 day, the defolliculated oocytes were each microinjected cytosolically with mP2X1 and human P2X3 receptor cRNA ([…], 1 μg/mL), incubated for 24 hours at 18° C. in Barth's solution. The cRNA-injected oocytes were kept for 12 days at 4° C. ATP-activated membrane currents (Vh=−70 mV) were recorded from the cRNA-injected oocytes using the two-electrode voltage clamp technique (Axoclamp 2B amplifier). Voltage recording ([…] tip resistance) and current-recording microelectrodes (5 MΩ tip resistance) were filled with 3.0 M KCl. Oocytes were placed in an electrophysiological chamber continuously superfused with Ringer's solution (5 mL/min, at 18° C.) containing 110 mM NaCl, 2.5 mM KCl, 5 mM HEPES and 1.8 mM BaCl2, with pH adjusted to 7.5. To induce an evoked current, 2 μM ATP was superfused for 60 to 120 seconds and then washed for 20 min. For data analysis, the ATP-evoked current was normalized at pH 7.5. The compounds were introduced to the fixed oocytes 20 minutes prior to ATP exposure in the electrophysiological chamber. IC50 values (the concentration of the compound required to inhibit the ATP response by 50%) were determined by Hill plots designed using the Chemical Formula: log(I/Imax−1), where I is the current evoked by ATP in the presence of an antagonist. Data are presented as mean±SEM (n≥3) from different batches of oocytes.
(§5) In order to investigate the structure-activity relationship (SAR) of the compounds synthesized in the present invention, the antagonistic activity was evaluated by a two-electrode voltage clamp (TEVC) assay in Xenopus oocytes expressing the recombinant mP2X1 or hP2X3, respectively. The hP2X7R antagonistic activity was assessed using an ethidium ion accumulation assay in human HEK293 cells stably expressing the recombinant human P2X7R.

Test [4] addresses T2, human P2X3 receptor (hP2X3) (Homo sapiens, UniProt P56373).
T2 construct: expressed in transfected cells; host or cells: Xenopus oocytes (cRNA microinjection)
T2 sequence (P56373 1-397): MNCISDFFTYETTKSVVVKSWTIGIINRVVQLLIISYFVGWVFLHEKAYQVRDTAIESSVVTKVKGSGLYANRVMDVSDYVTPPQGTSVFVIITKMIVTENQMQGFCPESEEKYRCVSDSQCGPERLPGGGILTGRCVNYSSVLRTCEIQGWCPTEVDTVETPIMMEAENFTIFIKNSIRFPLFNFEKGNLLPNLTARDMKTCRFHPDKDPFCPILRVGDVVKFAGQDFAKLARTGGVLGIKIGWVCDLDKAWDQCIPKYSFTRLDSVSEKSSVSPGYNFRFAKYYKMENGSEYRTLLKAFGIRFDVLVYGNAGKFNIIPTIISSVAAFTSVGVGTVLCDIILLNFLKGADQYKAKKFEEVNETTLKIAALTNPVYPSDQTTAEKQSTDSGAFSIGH
As to the kind of experiment: Two-electrode voltage clamp assay, recombinant hP2X3 receptor in Xenopus oocytes. In kind it is cell-based. The conditions noted are these: for inhibition at 1 µM: 1 μM compound, 2 μM ATP, mean±SEM n≥3 (footnote b), read-out: hP2X3 % inhibitory effect at 1 μM. As for the experimental part: as §3, §4, §5

Test [5] addresses T3, human P2X7 receptor (hP2X7) (Homo sapiens, UniProt Q99572).
T3 construct: expressed in transfected cells
T3 sequence (Q99572 1-595): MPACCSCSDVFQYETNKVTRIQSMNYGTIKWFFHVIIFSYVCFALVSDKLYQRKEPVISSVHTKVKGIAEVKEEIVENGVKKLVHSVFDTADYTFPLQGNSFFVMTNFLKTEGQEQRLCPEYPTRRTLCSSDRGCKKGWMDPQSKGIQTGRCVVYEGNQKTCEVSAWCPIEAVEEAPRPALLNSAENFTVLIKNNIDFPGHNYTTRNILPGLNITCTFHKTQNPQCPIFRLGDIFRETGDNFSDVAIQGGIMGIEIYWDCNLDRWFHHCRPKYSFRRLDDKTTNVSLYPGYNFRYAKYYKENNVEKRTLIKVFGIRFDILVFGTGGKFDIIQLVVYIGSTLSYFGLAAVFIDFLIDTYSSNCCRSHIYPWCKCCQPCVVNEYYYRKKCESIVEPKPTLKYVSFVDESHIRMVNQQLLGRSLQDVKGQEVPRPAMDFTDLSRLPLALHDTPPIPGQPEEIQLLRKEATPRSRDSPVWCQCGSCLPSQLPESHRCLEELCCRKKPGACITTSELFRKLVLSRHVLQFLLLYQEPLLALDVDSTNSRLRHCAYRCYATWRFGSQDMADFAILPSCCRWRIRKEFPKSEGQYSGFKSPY
Description: Ethidium bromide accumulation assay in hP2X7-expressing HEK293 cells. In kind it is cell-based. The conditions noted are these: 10 μM compound with BzATP. As for the experimental part: 1-2. Ethidium Bromide Accumulation Assay in hP2X-Expressing HEK293 Cells
HEK293 cells that are stably transfected with the human P2X7 receptor (P2X7R) were kept under a humidified atmosphere of 5% CO2 at 37° C. in DMEM supplemented with 10% (v/v) FBS, 2 mM L-glutamine and antibiotics (50 U/mL penicillin and 50 μg/ml streptomycin). BzATP-induced pore formation was measured using a fluorescence plate reader by measuring cellular absorption of ethidium in the hP2X7-expressing HEK293 cells. The hP2X7-expressing HEK293 cells were washed once with an appropriate assay buffer, and the buffer was also removed before subsequent analysis. All studies were performed at room temperature and the final assay volume was 100 μL. The cells were resuspended at 2.5×10^6 cells/mL in assay buffers consisting of 10 mM HEPES, 5 mM N-methyl-D-glucamine, 5.6 mM KCl, 10 mM D-glucose and 0.5 mM CaCl2 (pH 7.4) and supplemented with 280 mM sucrose or 140 mM NaCl.
In order to determine the antagonistic activity of the 5-hydroxyl-pyridine derivatives of the present invention and the reference compound (AZD9056), these compounds were added to the cells at a concentration of 10 μM with BzATP without pre-incubation. The cells were incubated for 2 hours under a humidified atmosphere of 5% CO2 at 37° C., and the absorption of ethidium dye was observed by measuring fluorescence with a Bio-Tek instrument FL600 fluorescent plate reader (excitation wavelength of 530 nm and emission wavelength of 590 nm). The results are expressed as a percentage relative to the maximum cumulative amount of ethidium bromide when stimulated with BzATP alone.
as §5

Turning to `CCCc1nc(Cc2cccc(Oc3ccccc3)c2)c(C)c(C(=O)OC2CCOC2)c1O` (centres unmarked) [Compound 46i, Tetrahydrofuran-3-yl 3-hydroxy-5-methyl-6-(3-phenoxybenzyl)-2-propylisonicotinate], the ED50 in test [1] came to 3.56 mg/kg; in test [2], 2.87 mg/kg.
As for `CCCc1nc(Cc2cccc(Oc3ccccc3)c2)c(C)c(C(=O)OC2CCNCC2)c1O` [Compound 47, Piperidin-4-yl 3-hydroxy-5-methyl-6-(3-phenoxybenzyl)-2-propylisonicotinate], the ED50 was 3.77 mg/kg in test [1] and 3.35 mg/kg in test [2].
On the same counts, the results for `CCCc1nc(Cc2cccc(Oc3ccccc3)c2)c(C)c(C(=O)OCCN2C(=O)c3ccccc3C2=O)c1O` [Compound 46c, 2-phthalimidoethyl 3-hydroxy-5-methyl-6-(3-phenoxybenzyl)-2-propylisonicotinate] are 3.28 mg/kg and 2.97 mg/kg.
On the same counts, the results for `CCCc1nc(Cc2cccc(Oc3ccccc3)c2)c(C)c(C(=O)OC(CC)CC)c1O` [Compound 46g, Pentan-3-yl 3-hydroxy-5-methyl-6-(3-phenoxybenzyl)-2-propylisonicotinate] are 3.66 mg/kg and 3.42 mg/kg.
For the compound `COc1ccc(CCc2nc(C)c(O)c3c2C(=O)OC3=O)cc1` [Compound 18, 7-Hydroxy-4-(4-methoxyphenethyl)-6-methylfuro[3,4-c]pyridine-1,3-dione], in test [3] (10 μM compound, 2 μM ATP, mean±SEM n≥3 (footnote c), read-out: mP2X1 % inhibitory effect at 10 μM), the inhibition at 10 µM was determined as 25.3%. In addition, in test [4] (Xenopus oocytes), the inhibition at 1 µM stood at 27.8%. The “hP2X7 % inhibition of ethidium bromide accumulation” value (“hP2X7 % inhibition” for short) in test [5] is “inactive”.
As for `CCCc1nc(Cc2cccc(Oc3ccccc3)c2)c(C)c(CN)c1O` [Compound 41, 4-(Aminomethyl)-5-methyl-6-(3-phenoxybenzyl)-2-propylpyridin-3-ol], the “mP2X1 % inhibitory effect at 10 μM” value in test [3] (10 μM compound, 2 μM ATP, mean±SEM n≥3 (footnote c)) was “inactive^c”. The inhibition at 1 µM in test [4] (Xenopus oocytes) was below 50%. The “hP2X7 % inhibition” value in test [5] was “inactive”.
For `CCCc1nc(Cc2cccc(Oc3ccccc3)c2)c(C)c(C(=O)OCC)c1O` [Compound 48, Ethyl 3-hydroxy-5-methyl-6-(3-phenoxybenzyl)-2-propylisonicotinate], the ED50 in test [1] was 3.87 mg/kg; in test [2], 3.52 mg/kg.
As for `COc1ccc(CCc2ncc(O)c(C(=O)O)c2C(=O)O)cc1` [Compound 13a, 5-Hydroxy-2-(4-methoxyphenethyl)pyridine-3,4-dicarboxylic acid], the IC50 was 236 ± 78 nM in test [3] (2 μM ATP-evoked current, mean±SEM n≥3 (footnote d), read-out: mP2X1 IC50) and 561 ± 99 nM in test [4] (2 μM ATP-evoked current, Xenopus oocytes, mean±SEM n≥3 (footnote d)). Moreover, in test [4] (hP2X3R versus mP2X1R), the “selectivity for hP2X3R to mP2X1R” value is recorded as “non-selective”. For the same compound, in test [5], the “hP2X7 % inhibition” value was “Inactive”.
As for `CCCc1nc(Cc2cccc(Oc3ccccc3)c2)c(C)c(C(=O)OCCCCN2C(=O)c3ccccc3C2=O)c1O` [Compound 46d, 4-phthalimidobutyl 3-hydroxy-5-methyl-6-(3-phenoxybenzyl)-2-propylisonicotinate], the ED50 in test [1] worked out at 3.94 mg/kg; in test [2] it was 3.12 mg/kg.
Take `CCCCCCCCOC(=O)c1c(C)c(Cc2cccc(Oc3ccccc3)c2)nc(CCC)c1O` [Compound 46b, Octyl 3-hydroxy-5-methyl-6-(3-phenoxybenzyl)-2-propylisonicotinate]: the ED50 in test [1] stood at 2.93 mg/kg; in test [2], 2.47 mg/kg.
As to `CCCc1nc(Cc2cccc(Oc3ccccc3)c2)c(C)c(C(=O)OC(C)C)c1O` [Compound 46f, Isopropyl 3-hydroxy-5-methyl-6-(3-phenoxybenzyl)-2-propylisonicotinate], the ED50 is 3.08 mg/kg in test [1] and 2.78 mg/kg in test [2].
